This is an account of results in PMC10301896 (Pharmaceutics, 2023).

The nature of data set [1]: Chelation with Al3+ ion in vitro (precipitation with AlCl3). The format is physicochemical. Particulars: drug 50 μM, pH 6.5, 30 min, 24 °C. As for the experimental part:
AlCl3 was also dissolved in the same buffer at a concentration of 50 μM, 100 μM, 200 μM, 1 mM, or 2 mM, and each drug solution and AlCl3 solution were mixed at an equal volume. The mixture solution was shaken, stood for 30 min at 24 °C and centrifuged. The supernatant was filtrated through a syringe filter with 0.22 μm of pore size (Millipore, Tokyo, Japan).

For data set [2] the following is noted: control rabbits.
A short description of data set [3]: Partition coefficient, chloroform/0.1 M Tris-HCl buffer (pH 6.5). The format is physicochemical. The procedure:
Briefly, chloroform and 0.1 M Tris-HCl buffer (pH 6.5) were mutually saturated before experiments. […] Four milliliters of each drug solution were added to 4 mL of chloroform, and the mixture was vigorously shaken for 30 min at 25 °C. After centrifugation at 3000 rpm for 10 min, the concentration of the compound in both phases was determined by HPLC.

Data set [4] is described as follows: Solubility in pH 2 buffer and 0.1 M Tris-HCl buffer (pH 6.5). It is filed as physicochemical. Particulars: thermodynamic from solid, 25 °C. As for the experimental part: The mixture was centrifuged at 3000 rpm for 10 min, and the supernatant was filtered through a syringe filter with 0.22 μm of pore size (Millipore, Tokyo, Japan), and the concentrations of the compound in the filtrate were measured by HPLC.

The nature of data set [5]: Chemical stability in phosphate buffer solutions. The format is physicochemical. Particulars: 37 °C. The procedure: (§1) Briefly, to examine the chemical stability of CFX-EHE, pH 6.5 and pH 7.4 phosphate buffer solutions (PBS) were used. Enzymatic stability of CFX-EHE (the initial concentration was 0.1 mM) was determined at 1, 5, and 15 min after the start of incubation at 37 °C using the following specimen: rat 10% plasma obtained from male Sprague Dawley (SD) rats, rat 2% small intestinal mucosal homogenates, and rat 2% liver homogenates in the same manner as described previously. […].

A short description of data set [6]: Enzymatic stability in rat 2% small intestinal mucosal homogenates. It is filed as in vitro ADME. The settings on record: rat 2% mucosal homogenate, 37 °C. The procedure:
as §1

Data set [7] in a line: Enzymatic stability in rat 2% liver homogenates. The format is in vitro ADME. The settings on record: 37 °C. The procedure: as §1
A short description of data set [8]: Enzymatic stability in rat 10% plasma. The format is in vitro ADME. Particulars: 37 °C. As for the experimental part: as §1
Data set [9] relates to S. aureus ATCC29213. Briefly: MIC, agar plate dilution method. The format is cell-based, Staphylococcus (S.) aureus. The procedure:
The bacterial numbers of S. aureus, E. coli, and P. aeruginosa were adjusted to McFarland 0.5 ([…]) with the sterilized isotonic NaCl solution. These bacterial solutions were inoculated in Mueller–Hinton broth containing CFX or CFX-EHE. Facultative anaerobic and aerobic bacteria were cultured under the aerobic condition at 37 °C for 20 h.

For data set [10], the system named is E. coli ATCC25922. Kind of data set: MIC, agar plate dilution method. The format is cell-based, Escherichia (E.) coli. As for the experimental part:
The bacterial numbers of S. aureus, E. coli, and P. aeruginosa were adjusted to McFarland 0.5 ([…]) with the sterilized isotonic NaCl solution. […] Facultative anaerobic and aerobic bacteria were cultured under the aerobic condition at 37 °C for 20 h.

In data set [11] the test system is P. aeruginosa ATCC27853. Kind of data set: MIC, agar plate dilution method. The format is cell-based, Pseudomonas (P.) aeruginosa.
For data set [12] the following is noted: cited from earlier work; for Rate of adsorption onto solid Al(OH)3: quinolones 50 µM.
The conditions of data set [13]: cited from earlier work.
For data set [14] the following is noted: cited from earlier work. This is another data set of the same source.
For data set [15] the following is noted: sheep, dose of 2 mg/kg; cited from earlier work.
The conditions of data set [16]: mixed-breed dogs, dose of 5 mg/kg; cited from earlier work.
For data set [17] the following is noted: cited from earlier work. The source holds these as a separate data set.
The conditions of data set [18]: rats; cited from earlier work.
For data set [19] the following is noted: cited from earlier work. The source holds these as a separate data set.
For data set [20] the following is noted: 2% mucosal homogenate, 1 min incubation; cited from earlier work.
For data set [21] the following is noted: 2% liver homogenates, 1 min incubation; cited from earlier work.
The conditions of data set [22]: 10% plasma, 1 min incubation; cited from earlier work.

Structures are written as SMILES. ≈ marks a conversion by molar mass, not a printed value. Read-outs that look alike come from different tables or passages of the source.

Take `O=C(O)c1cn(C2CC2)c2cc(N3CCNCC3)c(F)cc2c1=O` [CFX, ciprofloxacin]: the “Precipitation (%)” value in data set [1] (AlCl3 25 μM) is 20.4 ± 17.6%; in data set [1] (AlCl3 50 μM), 22.9 ± 16.7%; in [1] (AlCl3 100 μM), 39.2 ± 17.7%; in data set [1] (AlCl3 500 μM), 55.5 ± 18.0%; in [1] (AlCl3 1 mM) it was 73.4 ± 2.0%. Further, the β in data set [2] ([…] iv infusion, LFX 20, CFX 30, TC 10 mg/kg) amounted to 0.34 ± 0.04 h⁻¹.
Regarding `CCOC(=O)OC(C)OC(=O)c1cn(C2CC2)c2cc(N3CCNCC3)c(F)cc2c1=O` (centres unmarked) [CFX-EHE], the “log PC” value in data set [3] (chloroform/0.1 M Tris-HCl buffer (pH 6.5), 25 °C) is 0.79. The “PC (partition coefficient)” value in [3] (chloroform/0.1 M Tris-HCl buffer (pH 6.5), 25 °C, mean of 3) came to 6.12. In data set [3] (chloroform/pH 6.5 buffer), the “Apparent PC of CFX-EHE relative to CFX” value stood at 13 fold. Also, the solubility (commonly how much of the substance goes into solution per volume) at 30 min in data set [4] (aqueous buffer, 0.1 M Tris-HCl buffer (pH 6.5), read-out: Solubility pH 6.5) turned out to be 3080 µg/mL (≈ 6880 µM); in data set [4] (pH 2 buffer adjusted with hydrochloric acid, pH 2, aqueous buffer, read-out: Solubility pH 2.0) it was 4280 µg/mL (≈ 9570 µM). The “Precipitation (%)” value in [1] (AlCl3 25 μM), in [1] (AlCl3 50 μM), in data set [1] (AlCl3 100 μM) and in data set [1] (AlCl3 500 μM) was 0% each time. Further, the “Hydrolysis (%)” value in data set [5] (0.1 M PBS (pH 6.5), 1 min) is on record as 0%; in data set [5] (0.1 M PBS (pH 6.5), 5 min), 0%; in data set [5] (0.1 M PBS (pH 6.5), 15 min) it was 0%; in data set [5] (0.1 M PBS (pH 7.4), 1 min), 0%; in data set [5] (0.1 M PBS (pH 7.4), 5 min), 0%; in data set [5] (0.1 M PBS (pH 7.4), 15 min) it was 0%. Further, the “Hydrolysis (%)” value was found to be 20.4 ± 2.7% in data set [6] (1 min); 59.0 ± 9.2% in data set [6] (5 min); 85.9 ± 11.5% in data set [6] (15 min); 38.4 ± 15.8% in data set [7] (1 min); 69.5 ± 9.5% in [7] (5 min); 94.8 ± 3.4% in data set [7] (15 min). Also, the “Hydrolysis (%)” value in data set [8] (1 min) is given as 9.5 ± 9.0%; in [8] (5 min), 27.2 ± 1.0%; in data set [8] (15 min), 71.1 ± 17.4%. Moreover, the “MIC of CFX-EHE relative to CFX” value in data set [9] (S. aureus), in data set [10] (E. coli) and in data set [11] (P. aeruginosa) was “more than 10 times” in each case. In addition, the MIC – broadly, the smallest concentration in the dilution series that meets the test's criterion for growth inhibition – in data set [9] (Staphylococcus aureus, S. aureus ATCC29213, 37 °C, 20 h) amounted to 4 µg/mL (≈ 8.94 µM); in data set [10] (Escherichia coli, E. coli ATCC25922, 37 °C, 20 h) it was 0.5 µg/mL (≈ 1.12 µM); in [11] (Pseudomonas aeruginosa, P. aeruginosa ATCC27853, 37 °C, 20 h), 8 µg/mL (≈ 17.9 µM).
Consider `CCn1cc(C(=O)O)c(=O)c2cc(F)c(N3CCNCC3)nc21` [ENX, enoxacin], for which, in [12], the “Elution rate of adsorbed quinolones with water” value (“Elution rate” below) is listed as 18.3% and the “Rate of adsorption onto solid Al(OH)3” value was 61.0%.
Turning to `C[C@H]1COc2c(N3CCN(C)CC3)c(F)cc3c(=O)c(C(=O)O)cn1c23` [LFX, levofloxacin], the PC in [13] is 5.6. Further, the “Total plasma clearance (CLtotal), Doseiv/AUC0–∞” value in data set [2] (iv infusion) was determined as 13.7 mL/min/kg. Besides, in data set [14] (50 μM of AlCl3, same in vitro conditions), the Precipitation percentage is 12.4%. The Absolute oral bioavailability in data set [15] was 114 ± 27.7%; in data set [16], 71.93 ± 9.75%. Moreover, in [12], the “Elution rate” value is 17.9%. Moreover, the “Rate of adsorption onto solid Al(OH)3” value in [12] is recorded as 48.1%. Also, in data set [17] (LFX 200–750 mg, CFX 200–1000 mg, TC 250 mg, ref references listed in the discussion section), the “Oral bioavailabilities in humans” value is 70–100% (200–750 mg). For the same compound, the “Fecal recovery, % of an intravenous dose” value in data set [17] (human, in vivo, iv) was “approximately 15%”. For the same compound, the Oral bioavailability was 69 ± 7% in [17] (human, in vivo, po, 200 mg); 79 ± 47% in [17] (human, in vivo, po, 250 mg); 82 ± 13% in [17] (human, in vivo, po, 500 mg); “approximately 70%” in data set [17] (human, in vivo, po); “approximately 100%” in [17] (humans, review article). In data set [18], the “Dose absorbed as the intact form from the intestinal tract into the portal system” value is “approximately 90%”.
For `CCOC(=O)OC(C)OC(=O)c1cn2c3c(c(N4CCN(C)CC4)c(F)cc3c1=O)OC[C@@H]2C` (some centres unmarked) [LFX-EHE, levofloxacin-ethoxycarbonyl 1-ethyl hemiacetal ester], the PC in data set [13] is 75.2. Besides, the “PC (lipophilicity) of LFX-EHE relative to LFX” value in [13] is 13 fold. In addition, the Solubility (usually how much of the substance goes into solution per volume) at pH 2.0 in data set [19] was 16.54 mg/mL. Moreover, the “Precipitation in the presence of AlCl3” value in data set [14] (1 mM of AlCl3 (drug: AlCl3 = 1:20)) is “not precipitated”. Further, the Average hydrolysis % was 17.4% in data set [20], 17.7% in data set [21] and 8.2% in data set [22].
`CC1COc2c(N3CCN(C)CC3)c(F)cc3c(=O)c(C(=O)O)cn1c23` (centres unmarked) [OFX, ofloxacin]: in [12], the “Elution rate” value is 20.9% and the “Rate of adsorption onto solid Al(OH)3” value is 47.2%.
